Source: ChEMBL document CHEMBL5550214, “Expanding Structure-Activity Relationships of Human Urotensin II Peptide Analogues: A Proposed Key Role of the N-Terminal Region for Novel Urotensin II Receptor Modulators” (J Med Chem, 2024)
The source made the active and inactive calls. No cut-off for these calls is given here.

How the values were obtained:
Aortic ring [1] = assay: Induction of contraction in Albino Wistar rat aortic ring assessed as Emax of hU-II at 0.1 uM incubated for 30 mins in presence of hU-II (reference value: 214.5 +/- 10.51 dyne/mg); assay type: functional, Aorta; conditions: 0.5 h
Aortic ring [2] = assay: Induction of contraction in Albino Wistar rat aortic ring assessed as Emax of U-II(4-11) at 0.1 uM incubated for 30 mins in presence of U-II(4-11) (reference value: 159.8 +/- 7.3 dyne/mg); assay type: functional, Aorta; conditions: 0.5 h
Aortic ring [3] = assay: Induction of contraction in Albino Wistar rat aortic ring at 1 to 30 nM; assay type: functional, tissue-based; conditions: Aorta, dose 1-30 nM
Aortic ring [4] = assay: Induction of contraction in Albino Wistar rat aortic ring assessed as Emax of [Ala1]U-II at 10 uM incubated for 30 mins in presence of [Ala1]U-II (reference value: 323 +/- 30.45 dyne/mg); assay type: functional, Aorta; conditions: 0.5 h
Aortic ring [5] = assay: Induction of contraction in Albino Wistar rat aortic ring assessed as Emax of hU-II at 10 uM incubated for 30 mins in presence of hU-II (reference value: 279.9 +/- 11.02 dyne/mg); assay type: functional, Aorta; conditions: 0.5 h
Aortic ring [6] = assay: Induction of contraction in Albino Wistar rat aortic ring assessed as Emax of [Ala1]U-II at 0.1 uM incubated for 30 mins in presence of [Ala1]U-II (reference value: 153.3 +/- 10.75 dyne/mg); assay type: functional, Aorta; conditions: 0.5 h
Aortic ring [7] = assay: Induction of contraction in Albino Wistar rat aortic ring assessed as Emax of U-II(4-11) at 1 uM incubated for 30 mins in presence of U-II(4-11) (reference value: 152.4 +/- 5.1 dyne/mg); assay type: functional, Aorta; conditions: 0.5 h
Aortic ring [8] = assay: Induction of contraction in Albino Wistar rat aortic ring assessed as Emax of hU-II at 1 uM incubated for 30 mins in presence of hU-II (reference value: 238.4 +/- 9.53 dyne/mg); assay type: functional, Aorta; conditions: 0.5 h
Aortic ring [9] = assay: Induction of contraction in Albino Wistar rat aortic ring assessed as Emax of [Ala1]U-II at 1 uM incubated for 30 mins in presence of [Ala1]U-II (reference value: 391.6 +/- 38.83 dyne/mg); assay type: functional, Aorta; conditions: 0.5 h
Aortic ring [10] = assay: Induction of contraction in Albino Wistar rat aortic ring assessed as Emax of U-II(4-11) at 10 uM incubated for 30 mins in presence of U-II(4-11) (reference value: 242.6 +/- 20.63 dyne/mg); assay type: functional, Aorta; conditions: 0.5 h
Aortic ring [11] = assay: Induction of contraction in Albino Wistar rat aortic ring assessed as Emax of U-II(4-11) at 1 uM incubated for 30 mins in presence of U-II(4-11) (reference value: 242.6 +/- 20.63 dyne/mg); assay type: functional, Aorta; conditions: 0.5 h
Aortic ring [12] = assay: Induction of contraction in Albino Wistar rat aortic ring assessed as Emax of [Ala1]U-II at 10 uM incubated for 30 mins in presence of [Ala1]U-II (reference value: 220.3 +/- 17.48 dyne/mg); assay type: functional, Aorta; conditions: 0.5 h
Aortic ring [13] = assay: Induction of contraction in Albino Wistar rat aortic ring assessed as Emax of hU-II at 1 uM incubated for 30 mins in presence of hU-II (reference value: 279.9 +/- 11.02 dyne/mg); assay type: functional, Aorta; conditions: 0.5 h
[14] = biological target: T1, Urotensin-2 receptor (Homo sapiens) (UniProt Q9UKP6); assay: Modulation of human UTR stably expressed in HEK293 cells assessed as increase in Ca2+ level at 0.1 to 100 nM by Fura 2-AM dye based calcium mobilization assay; assay type: functional, cell-based; conditions: dose 0.1-100 nM
T1 sequence (whole entry): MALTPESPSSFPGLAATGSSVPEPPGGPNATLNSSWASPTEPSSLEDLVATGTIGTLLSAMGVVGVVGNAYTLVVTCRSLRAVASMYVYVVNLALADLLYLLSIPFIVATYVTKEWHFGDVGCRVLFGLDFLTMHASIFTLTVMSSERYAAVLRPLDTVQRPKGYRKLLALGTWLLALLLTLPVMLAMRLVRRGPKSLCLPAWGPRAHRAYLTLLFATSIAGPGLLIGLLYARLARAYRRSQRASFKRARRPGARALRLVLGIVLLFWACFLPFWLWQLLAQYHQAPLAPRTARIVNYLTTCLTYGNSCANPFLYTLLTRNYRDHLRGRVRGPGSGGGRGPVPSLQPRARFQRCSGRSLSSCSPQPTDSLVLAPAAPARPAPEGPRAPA

Aortic ring [15] = assay: Induction of contraction in Albino Wistar rat aortic ring assessed as Emax of [Ala1]U-II at 1 uM incubated for 30 mins in presence of [Ala1]U-II (reference value: 323 +/- 30.45 dyne/mg); assay type: functional, Aorta; conditions: 0.5 h
Aortic ring [16] = assay: Induction of contraction in Albino Wistar rat aortic ring assessed as Emax of U-II(4-11) at 0.1 uM incubated for 30 mins in presence of U-II(4-11) (reference value: 152.4 +/- 5.1 dyne/mg); assay type: functional, Aorta; conditions: 0.5 h
Aortic ring [17] = assay: Induction of contraction in Albino Wistar rat aortic ring assessed as Emax of hU-II at 0.1 uM incubated for 30 mins in presence of hU-II (reference value: 238.4 +/- 9.53 dyne/mg); assay type: functional, Aorta; conditions: 0.5 h
Aortic ring [18] = assay: Induction of contraction in Albino Wistar rat aortic ring assessed as Emax of [Ala1]U-II at 0.1 uM incubated for 30 mins in presence of [Ala1]U-II (reference value: 391.6 +/- 38.83 dyne/mg); assay type: functional, Aorta; conditions: 0.5 h
Aortic ring [19] = assay: Induction of contraction in Albino Wistar rat aortic ring assessed as Emax of U-II(4-11) at 10 uM incubated for 30 mins in presence of U-II(4-11) (reference value: 159.8 +/- 7.39 dyne/mg); assay type: functional, Aorta; conditions: 0.5 h
Aortic ring [20] = assay: Induction of contraction in Albino Wistar rat aortic ring assessed as Emax of hU-II at 10 uM incubated for 30 mins in presence of hU-II (reference value: 251.4 +/- 15.43 dyne/mg); assay type: functional, Aorta; conditions: 0.5 h

Row | Activity [14] | SMILES | Emax (Aortic ring [1]) [dyn/mg] | Emax (Aortic ring [2]) [dyn/mg] | Activity (Aortic ring [3]) | Emax (Aortic ring [4]) [dyn/mg] | Emax (Aortic ring [5]) [dyn/mg] | Emax (Aortic ring [6]) [dyn/mg] | Emax (Aortic ring [7]) [dyn/mg] | Emax (Aortic ring [8]) [dyn/mg] | Emax (Aortic ring [9]) [dyn/mg] | Emax (Aortic ring [10]) [dyn/mg] | Emax (Aortic ring [11]) [dyn/mg] | Emax (Aortic ring [12]) [dyn/mg] | Emax (Aortic ring [13]) [dyn/mg] | Emax (Aortic ring [15]) [dyn/mg] | Emax (Aortic ring [16]) [dyn/mg] | Emax (Aortic ring [17]) [dyn/mg] | Emax (Aortic ring [18]) [dyn/mg] | Emax (Aortic ring [19]) [dyn/mg] | Emax (Aortic ring [20]) [dyn/mg]
1 | – | CC(C)[C@H](NC(=O)[C@@H]1CSSC(C)(C)[C@H](NC(=O)[C@H](C)NC(=O)[C@@H]2CCCN2C(=O)[C@@H](NC(=O)[C@H](C)N)[C@@H](C)O)C(=O)N[C@@H](Cc2ccccc2)C(=O)N[C@H](Cc2c[nH]c3ccccc23)C(=O)N[C@@H](CCCN)C(=O)N[C@@H](Cc2ccc(O)cc2)C(=O)N1)C(=O)O | 386.5 | 354.4 | inactive | 457.6 | 126.2 | 406.4 | 502.2 | 231.1 | 593 | 261.8 | – | – | – | – | – | – | – | – | –
2 | inactive | CC(C)[C@H](NC(=O)[C@@H]1CSSC(C)(C)[C@H](NC(=O)[C@H](CC(=O)O)NC(=O)[C@@H]2CCCN2C(=O)[C@@H](NC(=O)[C@@H](N)CCO)[C@@H](C)O)C(=O)N[C@@H](Cc2ccccc2)C(=O)N[C@H](Cc2c[nH]c3ccccc23)C(=O)N[C@@H](CCCN)C(=O)N[C@@H](Cc2ccc(O)cc2)C(=O)N1)C(=O)O | – | – | inactive | – | – | – | – | – | – | – | 93.38 | 148.9 | 188.6 | 119.1 | 120.9 | 179.2 | 251.5 | 111.3 | 181.9
